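Briefly, cells in 96-well plates were exposed to five compound concentrations for 48 h, and endpoints were estimated by linear interpolation. The concentration for 50% growth inhibition is given as GI50.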 The source made the active and inactive calls. No stated cut-off is given here; in the data, active = GI50 up to about 1.1 µM and inactive = higher.
What was measured:
Assay in all cases: NCI-60 cell line screen, 48 h
[1] = system: A549
[2] = system: HCC 2998
[3] = system: K562
[4] = system: LOX IMVI
[5] = system: M14
[6] = system: NCI-H23
[7] = system: NCI-H460
[8] = system: NCI-H522
[9] = system: OVCAR-8
[10] = system: SF-268
[11] = system: SK-MEL-28
[12] = system: SK-OV-3
[13] = system: SN12C
[14] = system: SR
[15] = system: SW-620
[16] = system: UO-31
[17] = system: A498
[18] = system: OVCAR-4

Measured: GI50

CC1CCc2c(sc3ncnc(N/N=C/c4ccc(Cl)cc4)c23)C1 (stereo unspecified)
inactive: [1] 31 µM | [2] 48.1 µM | [3] 18.6 µM | [4] 22.1 µM | [5] 28 µM | [6] 32.8 µM | [7] 29.4 µM | [8] 25.9 µM | [9] 31.4 µM | [10] 25.1 µM | [11] 32.3 µM | [12] 35.6 µM | [13] 33.4 µM | [14] 21.6 µM | [15] 35.6 µM | [16] 4.78 µM

CN(C)C(=O)Nc1c([N+](=O)[O-])cc(C(F)(F)F)cc1[N+](=O)[O-]
inactive: [17] > 100 µM | [1] 45 µM | [3] 37.6 µM | [4] 28.8 µM | [5] 44.6 µM | [6] 27.7 µM | [7] 42.9 µM | [8] 29.9 µM | [18] 27.7 µM | [9] 40.4 µM | [10] > 100 µM | [11] > 100 µM | [12] > 100 µM | [13] 45.7 µM | [14] 58.7 µM | [15] 32.7 µM | [16] > 100 µM

NC(=O)NC(=O)C1CCC(=O)N1S(=O)(=O)c1ccc(Cl)cc1 (stereo unspecified)
inactive: [1] > 100 µM | [3] > 100 µM | [5] > 100 µM | [6] > 100 µM | [7] > 100 µM | [8] 63 µM | [18] > 100 µM | [9] > 100 µM | [10] > 100 µM | [11] > 100 µM | [12] > 100 µM | [13] > 100 µM | [14] > 100 µM | [15] > 100 µM | [16] > 100 µM

CCOC(=O)/C(O)=C/c1cc(OC)cc(=O)o1
inactive: [17] > 100 µM | [1] > 100 µM | [2] > 100 µM | [3] > 100 µM | [4] > 100 µM | [5] > 100 µM | [6] > 100 µM | [7] > 100 µM | [8] > 100 µM | [18] > 100 µM | [9] > 100 µM | [10] > 100 µM | [11] > 100 µM | [12] > 100 µM | [13] > 100 µM | [15] > 100 µM | [16] > 100 µM

CN(C)CCNC(=O)c1cccc2ccc(-c3cccnc3)nc12
inactive: [17] 1.9 µM | [1] 3.7 µM | [2] 5.31 µM | [3] 4.74 µM | [4] 3.8 µM | [5] 8.45 µM | [6] 4.39 µM | [7] 2.94 µM | [18] 8.24 µM | [9] 4.3 µM | [10] 5.65 µM | [11] 11.6 µM | [12] 10.1 µM | [13] 3.61 µM | [15] 3.76 µM | [16] 1.98 µM

O=C1N2Cc3c4ccc5c3CN3C(=O)N6Cc7c(ccc(c7CN1C6(c1ccccc1)C23c1ccccc1)OCCOCCOc1cc(Br)c(Br)cc1OCCOCCO4)OCCOCCOc1cc(Br)c(Br)cc1OCCOCCO5 (stereo unspecified)
inactive: [1] > 100 µM | [2] > 100 µM | [3] > 100 µM | [5] 21.9 µM | [6] > 100 µM | [7] > 100 µM | [8] > 100 µM | [18] 36.5 µM | [9] > 100 µM | [10] > 100 µM | [11] > 100 µM | [12] > 100 µM | [13] 39.3 µM | [14] > 100 µM | [15] 15.1 µM | [16] > 100 µM

COc1ccc(C2NCCc3c2[nH]c2ccccc32)cc1 (stereo unspecified)
inactive: [1] 48.2 µM | [2] 24.7 µM | [3] 60.8 µM | [4] > 100 µM | [5] 23.2 µM | [6] > 100 µM | [7] 88.9 µM | [8] > 100 µM | [9] > 100 µM | [10] > 100 µM | [11] 5.22 µM | [12] > 100 µM | [13] > 100 µM | [14] 28.2 µM | [15] > 100 µM | [16] 42.3 µM

Cc1ccc([N+](=O)[O-])cc1NC(=O)c1cccc([N+](=O)[O-])c1O
inactive: [17] 11.3 µM | [1] 22.4 µM | [3] 12.3 µM | [4] 26.6 µM | [5] 16.8 µM | [6] 12.3 µM | [7] 12.2 µM | [8] 3.97 µM | [9] 23 µM | [10] 14.6 µM | [11] 11.5 µM | [12] 17.1 µM | [13] 23.8 µM | [15] 34.2 µM | [16] 6.27 µM

COc1cc2cc[n+](C)c(Cc3ccccc3)c2cc1OC
inactive: [17] > 100 µM | [1] > 100 µM | [3] > 100 µM | [4] > 100 µM | [5] > 100 µM | [6] > 100 µM | [7] > 100 µM | [8] 86.1 µM | [18] > 100 µM | [9] > 100 µM | [10] > 100 µM | [11] > 100 µM | [12] > 100 µM | [13] > 100 µM | [15] > 100 µM | [16] > 100 µM

CC1=C(C(=O)Nc2cc(F)c(F)cc2F)C(c2ccc(N(C)C)cc2)C(C(=O)Nc2cc(F)c(F)cc2F)=C(C)N1
inactive: [17] 19.1 µM | [1] 16.4 µM | [2] 23.7 µM | [3] 23.6 µM | [4] 31.8 µM | [5] 31.3 µM | [6] 20.9 µM | [7] 30.3 µM | [8] 19.8 µM | [18] 17.7 µM | [9] 29.6 µM | [10] 27 µM | [11] 30.5 µM | [12] 30.1 µM | [13] 30.1 µM | [15] 28.8 µM | [16] 17.1 µM

CC(=O)O[C@]12CCCCCCC1C1(O)C(O)CCC[C@H]12 (stereo partly specified)
inactive: [1] > 100 µM | [3] > 100 µM | [4] > 100 µM | [5] > 100 µM | [6] > 100 µM | [7] > 100 µM | [8] > 100 µM | [18] > 100 µM | [9] > 100 µM | [10] > 100 µM | [11] > 100 µM | [12] > 100 µM | [13] > 100 µM | [14] > 100 µM | [15] > 100 µM | [16] > 100 µM

CC(=O)NC(CCCN)C(=O)NCc1ccccc1 (stereo unspecified)
inactive: [17] > 100 µM | [1] > 100 µM | [2] > 100 µM | [3] > 100 µM | [4] > 100 µM | [5] > 100 µM | [6] > 100 µM | [7] > 100 µM | [8] > 100 µM | [18] > 100 µM | [9] > 100 µM | [10] > 100 µM | [11] > 100 µM | [12] > 100 µM | [13] > 100 µM | [15] > 100 µM | [16] > 100 µM

Cn1c(=O)c(NC(=O)C(Cl)(Cl)Cl)nc2ccccc21
inactive: [17] > 100 µM | [1] > 100 µM | [2] > 100 µM | [3] > 100 µM | [4] > 100 µM | [5] > 100 µM | [6] > 100 µM | [7] > 100 µM | [8] > 100 µM | [9] > 100 µM | [10] > 100 µM | [11] > 100 µM | [12] > 100 µM | [13] > 100 µM | [15] > 100 µM | [16] > 100 µM

CC1(CO)C(=O)OC12CCCCC2 (stereo unspecified)
inactive: [17] 44.4 µM | [1] > 100 µM | [2] > 100 µM | [3] > 100 µM | [4] > 100 µM | [5] > 100 µM | [6] > 100 µM | [8] > 100 µM | [18] > 100 µM | [9] > 100 µM | [10] > 100 µM | [11] > 100 µM | [12] > 100 µM | [13] > 100 µM | [14] 84.9 µM | [15] > 100 µM | [16] 63.4 µM

C=CCN1C(=O)CS/C1=N\NC(=O)c1c(C)nc2sccn12
inactive: [1] > 100 µM | [2] > 100 µM | [3] > 100 µM | [4] > 100 µM | [6] > 100 µM | [7] > 100 µM | [8] > 100 µM | [9] > 100 µM | [10] > 100 µM | [11] > 100 µM | [12] > 100 µM | [13] > 100 µM | [14] > 100 µM | [15] > 100 µM

CCNC(=O)/C=C/CCC#Cc1ccc(-c2ccc(-c3cccs3)s2)s1
inactive: [1] > 100 µM | [2] > 100 µM | [4] > 100 µM | [5] 5.61 µM | [6] > 100 µM | [7] > 100 µM | [8] > 100 µM | [18] > 100 µM | [9] > 100 µM | [10] > 100 µM | [12] > 100 µM | [14] > 100 µM | [15] > 100 µM | [16] > 100 µM

COc1ccc(C(=O)Nc2ccn(CCOC(=O)c3ccc(OC)cc3)c(=O)n2)cc1
inactive: [17] 93.3 µM | [1] > 100 µM | [3] > 100 µM | [4] > 100 µM | [5] > 100 µM | [7] > 100 µM | [8] 46.1 µM | [18] > 100 µM | [9] > 100 µM | [10] 43.9 µM | [11] > 100 µM | [12] > 100 µM | [13] > 100 µM | [14] > 100 µM | [15] > 100 µM | [16] 76.2 µM
